Assay results taken from patent US5352667A, “Non-peptidic surrogates of the Arg-Gly-Asp sequence and pharmaceutical compositions comprising them” (priority 1991, dated 1994).

Assays:
[1] = tested on: CD4^+ T cell adhesion to LN; assay: Inhibition of activated CD4+ T cell adhesion to laminin (LN); format: cell-based, human; details: for % inhibition of adhesion of activated CD4^+ T cell to LN / % Adhesion of activated CD4^+ T cell to LN: 0.2 mM peptides and surrogates, mAb anti-CD29 1/200, anti-VLA5 1/400 diluted; for % inhibition of adhesion of activated CD4^+ T cell to LN: * P<0.05; for % Adhesion of activated CD4^+ T cell to LN: none 55 ± 5
Method: To examine the adhesive properties of the T cells, 1 μg/50 μl/well of either fibronectin (FN) (Sigma), the 120 kD cell attachment fragment of FN (Telios Pharm. Inc. San Diego, CA), or laminin (LN) (Sigma), were added to 96-flat bottom microtiter-wells for 12 h. Unbound proteins were then washed away and remaining binding sites were blocked with 0.1% bovine serum albumin (BSA) added to the wells for 2 h and washed. CD4+T cells were purified from peripheral blood mononuclear leukocytes obtained from healthy human donors. The mononuclear cells were isolated using a Ficoll gradient, washed and incubated in RPMI supplemented with 10% fetal calf serum (FCS) and antibiotics in petri dishes at 37° C. humidified CO2 incubator. After 2 h, the non-adherent cells were isolated and applied on nylon-wool columns (1.5 h). CD4^+ T cells were then negatively selected by exposure of the cells to a cocktail of anti-CD8, CD19, and CD14 monoclonal antibodies (mAb) conjugated to magnetic-beads (Advanced Magnetics, MA). Unbound cells were recovered and their phenotype was examined. Purity of the CD4^+ T cells was always greater than 92% as determined by FACScan.
The purified CD4^+ T cells were radioactively labeled with ^51 [Cr](New England Nuclear) in RPMI +20% FCS for 2 h and washed. The cells were counted and seeded (0.2×10^5 cells) on the precoated microtiter wells in the presence or the absence of the various inhibitors. Coating was made either with FN, the 120 kD cell-attachment fragment of FN or with control adhesive protein laminin (LN). The inhibitors were various surrogates according to the invention, other test molecules or mAb. After 30 min incubation (in […] CO2 -- humidified incubator) the T cells were activated by 10 ng/ml phorbol myristate acetate (PMA) and the percent of T cells attached to the protein substrates was measured. Unbound cells were washed away after 20-30 min, the bound cells were lysed and their radioactivity was measured using radioactive counter. The amount of the radioactivity of the cell lysates represent the matrix-adherent cells and percent binding was calculated in comparison to the total radioactivity added to the wells. Activated T cell adhesion to control wells or to wells coated with BSA was always 2-5%; the level of adhesion of the non-activated T cells was always below 5%. Where indicated, 1/200 diluted mAb anti-CD29 (anti-β1 mAb Serotec, GB), or 1/400 diluted anti-VLA5 (the β1α5 FN-integrin receptor) mAb (Telios Pharm. Inc. San Diego), or 0.2 mM of RGD, GRGDSPK or GRGESP peptides (Sigma) were used. The tested non-peptidic surrogates, 0.2 mM in PBS, were used to pretreat the T cells for 15 min before seeding the cells *, P<0.05. The results shown in Tables 1A, 1B and 1C represent data obtained from several experiments that produced essentially similar results.
The four RGD surrogates, AC-4.

[2] = tested on: B16-melanoma cells adhesion to FN; assay: Inhibition of B16-melanoma cell adhesion to FN; format: cell-based, murine; details: for % inhibition of adhesion of B16-melanoma cells to FN / % Adhesion of B16-melanoma cells to FN: surrogates 0.2 mM; for % inhibition of adhesion of B16-melanoma cells to FN: * P<0.05; for % Adhesion of B16-melanoma cells to FN: none 75 ± 5; for B-16 melanoma cell adhesion to FN, in words: Table 2A
Method: (§1) To examine the adhesive properties of tumor cells, 1 μg/50μ/well of FN or 0.3μg/well of VN were added to 96-flat bottom microtiter wells for 12 h. Unbound proteins were then washed away and remaining binding sites were blocked with 0.1% BSA added to the wells for 2 h and washed. Murine B16-melanoma F-1 cells were metabolically labeled with ^35 S-methionine (New England Nuclear) for 2 h, chased for 18 h and extensively washed. The cell suspension was resuspened in RPMI supplemented with 1% BSA containing 1 mM CaCl2 and MgCl2. Tumor cell adhesion to control wells or to wells coated with BSA was always 2-5%. The tested non-peptidic surrogates, 0.2 mM in PBS, were used to pretreat the tumor cells for 15 min before seeding the cells *, P<0.05.
(§2) In a first series of experiments, the potential inhibitory action of the RGD surrogate SF-6,5 on adhesion of B16 melanoma cells to FN or VN was compared to that of the RGE surrogate SF-6,6 and to that of RGD, GRGDSPK and GRGESP peptides.
In a further set of experiments, the inhibitory activity of the RGD surrogates SF-6,5 and NS-11 on the adhesion of B16 murine melanoma cells to FN was compared to that of the GRGDSP peptide.

[3] = tested on: B16-melanoma cells adhesion to VN; assay: Inhibition of B16-melanoma cell adhesion to VN; format: cell-based, murine; details: for % inhibition of adhesion of B16-melanoma cells to VN / % Adhesion of B16-melanoma cells to VN: surrogates 0.2 mM; for % inhibition of adhesion of B16-melanoma cells to VN: * P<0.05; for % Adhesion of B16-melanoma cells to VN: none 68 ± 5
Method: as §1, §2

[4] = tested on: tumor cell-induced metastases; assay: Inhibition of tumor cell-induced metastases in C57BL/6 mice; format: in vivo; details: i.v. daily, 25μg of SF-6,5 per mouse, after induction of metastasis
[5] = target: T1, platelet GPIIb-IIIa receptor (Homo sapiens, UniProt P05106+P08514); assay: Inhibition of ADP-induced platelet aggregation (platelet rich plasma); format: cell-based; details: for Inhibition of platelet aggregation, dose dependence, in words: FIG. 3; for Inhibition of platelet aggregation at fixed concentration, in words: FIG. 4, fixed sub-saturating 0.5 mM / 10μg/ml, 4 experiments
T1 construct: Platelet concentrates were prepared from human whole blood; endogenous in cells; host or cells: human platelets in platelet rich plasma
Method: To investigate the inhibitory role of the RGD analogues on adhesion, the platelet GPIIb-IIIa receptor which mediates platelet aggregation upon activation was used as a model.
Platelet concentrates were prepared from human whole blood in 10% adenine-citrate-dextrose in Fenwall bags (Baxter Travenol, Israel) followed by standard AABB protocol. Platelet rich plasma was prepared by centrifugation (2500 rpm for 5 min). Samples of platelets were counted in a Minos AST Cell Counter (Levoiselle, France). Cell aggregation was induced by […] and monitored at […] in a 4-channel Aggregometer (Bio-Data, Hatboro, Pa.). To evaluate the effect of the various RGD peptides and the peptide analogues, the platelet rich plasma was pre-incubated with the various inhibitors for 10 min at 37° C. with 10μsolutions followed by the induction of aggregation.
To examine the specificity of the inhibitory effect of the RGD-analogues on platelet aggregation, the cells were treated with various peptidic (RGD and GRGDSP) and non-peptidic (SF-6,6, SF-6,5 and AC-15) RGD analogues used at a fixed sub-saturating concentration of 0.5 mM.
An in vitro assay as described in Example 17 was carried out with the compound NS-11 to examine its ability to interfere with platelet aggregation, and compared it to the SF-6,5 surrogate.
Platelet rich plasma (PRP) was prepared from acid/citrate/dextrose anti-coagulated fresh human blood by differential centrifugation. Platelet aggregation was induced by […] and monitored at 695 nm by a 4-channel Aggregometer (Bio-Data, PA). To evaluate the effect of the RGDS peptide and the NS-8, NS-11 and NS-15 analogs, the PRP was preincubated with the inhibitors for 10 minutes at 37° C., prior to the induction of aggregation. […] In fact, 50% inhibition of platelet aggregation was achieved using a 30-fold lower concentration of NS-11 than that of RGDS.

| Compound | T cell adhesion to LN, in words ([1]; 0.2 mM) | % inhibition of adhesion of activated CD4^+ T cell to LN [1] [%] | % Adhesion of activated CD4^+ T cell to LN [1] [%] | % inhibition of adhesion of B16-melanoma cells to FN [2] [%] | % Adhesion of B16-melanoma cells to FN [2] [%] | % inhibition of adhesion of B16-melanoma cells to VN [3] [%] | % Adhesion of B16-melanoma cells to VN [3] [%] | Inhibition of tumor cell-induced metastases [4] | Inhibition of platelet aggregation, dose dependence, in words [5] | Inhibition of platelet aggregation at fixed concentration, in words [5] | B-16 melanoma cell adhesion to FN, in words [2] | B-16 melanoma cell adhesion to VN, in words ([3]; Table 2A) | inhibition at 100 µM ([5]; 0.1 mM, ADP-induced, read-out: Percent inhibition of aggregation) [%] | inhibition at 300 µM ([5]; 0.3 mM, ADP-induced, read-out: Percent inhibition of aggregation) [%] | IC50 ([5]; FIG. 3, ADP-induced) [µM] | Inhibition of platelet aggregation, in words ([5]; Table 3) |
| --- | --- | --- | --- | --- | --- | --- | --- | --- | --- | --- | --- | --- | --- | --- | --- | --- |
| N=C(N)NCCCCCC(=O)NCCCCCC(=O)O [SF-6,6] | did not inhibit T cell adhesion to both FN and LN | 0 | 52 ± 6 | 0 | 75 ± 9 | 0 | 70 ± 7 | failed to inhibit metastases | but not SF-6,6, was found to inhibit the aggregation of platelet rich plasma | very limited inhibitory effect on platelet aggregation |  |  |  |  |  |  |
| GRGDSPK [RGD peptide (Sigma)] |  | 0 | 53 ± 4 | 80 | 15 ± 4 | 86 | 10 ± 2 |  |  | marked inhibitory effect on platelet aggregation | found to be inhibited by the GRGDSPK peptide |  |  |  |  |  |
| N=C(N)NCCCCCC(=O)NCCCCC(=O)O [SF-6,5, 6-aza-7-oxo-12-quanidino-dodecanoic acid] |  | 0 | 55 ± 6 | 55 | 34 ± 4 | 42 | 40 ± 5 | inhibition of tumor cell-induced metastases | found to inhibit the aggregation of platelet rich plasma in a dose-dependent fashion | even higher than that of the GRGDSPK peptide | inhibited tumor cell adhesion to both FN and VN | inhibited tumor cell adhesion to both FN and VN | 25 | 55 | 300 | mild, though significant effect on aggregation |
